Laboratory results from US8796271B2, “Heteroaryls and uses thereof” (Millennium Pharmaceuticals, Inc., priority 2010, dated 2014).
Like-named read-outs stand apart in the source and are kept apart here.

What was measured:
Format in all cases: biochemical
PI3K gamma = target: T1, PI3K gamma (Homo sapiens, UniProt P48736); experiment: Human PI3K gamma enzyme assay (HTRF)
T1 construct: His (N); host or cells: SF9 cells (baculovirus)
Text: (§1) The catalytic subunits of PI3Ks are cloned into either pDEST8 (p110 alpha) or pDEST10 (p110beta, p110delta, and p110gamma) as N-terminal His tagged fusion proteins using the Gateway system (Invitrogen, catalog #11804-010 for pDEST8 and 11806-015 for pDEST10). The sequences are verified before recombinant protein expression using the Baculovirus Expression System with Gateway® Technology. The accession numbers for the subunits are as follows:
(§2) For expression of the p110 complexes, the p85 (MOI of 4) is co-infected with p110 alpha, beta, and delta respectively (1MOI) in SF9 cells and harvested at 60 hours post co-infection. P110 gamma was infected at 1 MOI and harvested at 60 hours post infection.
(§3) For purification, PI3Ks are purified by Ni-NTA Agarose (Qiagen #30250) followed by Mono Q 10/100 GL (Ge Healthcare #17-5167-01). VPS34 is purified by Glutathione Sepharose 4 Fast Flow (GE Healthcare #17-5132-03) followed by HiTrap Q (GE Healthcare #17-1153-01).
(§4) 0.5 uL compounds in DMSO are added to wells of a 384 well microtitre plate (Corning 3575). At room temperature: 10 ul PI3K reaction buffer (50 mM Hepes, 5 mM DTT, 150 mM NaCl, 10 mM beta-glycerophosphate, 10 mM MgCl2, 0.25 mM sodium cholate and 0.001% CHAPS, pH 7.00) containing ATP (25 uM, Promega) is added followed immediately by 10 ul PI3K reaction buffer containing di-C8 PI(4,5)P2 (3.5 uM, CellSignals) and PI3Kalpha (0.4875 nM, Millennium Protein Sciences Group) and the mixture is incubated with shaking at room temperature for 30 minutes. Then 5 ul PI3K stop mix (50 mM Hepes, 5 mM DTT, 150 mM NaCl, 0.01% Tween-20, 15 mM EDTA and 25 nM biotin-PI(3,4,5)P3 (Echelon) is added to quench the reaction followed immediately by addition of 5 ul HTRF detection mix (50 mM Hepes, 5 mM DTT, 150 mM NaCl, 0.01% Tween-20, 40 mM KF, 10 nM GST:GRP-1 PH domain (Millennium Protein Sciences Group), 15 nM Streptavidin-XL (CisBio) and 0.375 nM anti-GST Eu++ antibody (CisBio) at pH 7.00). The plates are then incubated for 1 hour at room temperature with shaking and then read on a BMG PheraStar Plus reader.
(§5) 2) Human PI3K beta, delta and gamma isoforms are tested using the procedure described for PI3K alpha above but with the following changes: PI3K beta (5.25 nM), PI3K delta (0.75 nM) and PI3K gamma (5 nM). All isoforms supplied by Millennium Protein Science Group.
(§6) For the assay methods described above, test compound percent inhibition, at various concentrations, is calculated relative to control (DMSO and EDTA) treated samples. Compound concentration versus percent inhibition curves are fitted to generate IC50 values. One skilled in the art will appreciate that the values generated either as percentage inhibition at a single concentration or IC50 values are subject to experimental variation.

PI3K delta = target: T2, PI3K delta (Homo sapiens, UniProt O00329); experiment: Human PI3K delta enzyme assay (HTRF)
T2 construct: His (N); host or cells: SF9 cells (baculovirus)
T2 sequence (O00329 whole entry): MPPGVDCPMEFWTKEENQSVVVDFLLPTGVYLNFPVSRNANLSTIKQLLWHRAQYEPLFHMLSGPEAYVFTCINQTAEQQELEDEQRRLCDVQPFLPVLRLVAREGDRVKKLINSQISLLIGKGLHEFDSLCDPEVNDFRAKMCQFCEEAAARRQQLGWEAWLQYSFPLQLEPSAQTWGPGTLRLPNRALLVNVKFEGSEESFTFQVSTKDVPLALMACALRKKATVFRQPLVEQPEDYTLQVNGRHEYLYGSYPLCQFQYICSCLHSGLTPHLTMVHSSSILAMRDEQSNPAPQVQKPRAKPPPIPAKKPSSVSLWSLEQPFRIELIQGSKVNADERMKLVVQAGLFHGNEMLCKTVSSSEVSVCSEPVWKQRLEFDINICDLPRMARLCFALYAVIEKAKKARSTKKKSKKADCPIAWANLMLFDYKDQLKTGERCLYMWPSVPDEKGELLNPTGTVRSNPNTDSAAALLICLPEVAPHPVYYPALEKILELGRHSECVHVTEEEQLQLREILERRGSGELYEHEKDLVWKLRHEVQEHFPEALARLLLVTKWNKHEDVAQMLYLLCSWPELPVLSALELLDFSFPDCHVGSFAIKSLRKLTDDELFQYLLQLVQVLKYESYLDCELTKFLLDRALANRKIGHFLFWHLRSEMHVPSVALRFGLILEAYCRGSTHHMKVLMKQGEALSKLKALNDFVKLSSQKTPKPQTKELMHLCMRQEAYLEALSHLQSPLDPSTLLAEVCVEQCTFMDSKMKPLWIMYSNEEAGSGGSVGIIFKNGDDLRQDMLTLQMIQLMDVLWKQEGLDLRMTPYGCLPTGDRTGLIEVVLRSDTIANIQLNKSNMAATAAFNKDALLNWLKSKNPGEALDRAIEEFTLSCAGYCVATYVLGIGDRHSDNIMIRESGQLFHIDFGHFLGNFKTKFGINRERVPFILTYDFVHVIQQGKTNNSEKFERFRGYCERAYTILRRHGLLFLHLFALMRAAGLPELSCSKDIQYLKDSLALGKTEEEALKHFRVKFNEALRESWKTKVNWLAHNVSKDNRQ
T2 sequence (P27986 whole entry partner): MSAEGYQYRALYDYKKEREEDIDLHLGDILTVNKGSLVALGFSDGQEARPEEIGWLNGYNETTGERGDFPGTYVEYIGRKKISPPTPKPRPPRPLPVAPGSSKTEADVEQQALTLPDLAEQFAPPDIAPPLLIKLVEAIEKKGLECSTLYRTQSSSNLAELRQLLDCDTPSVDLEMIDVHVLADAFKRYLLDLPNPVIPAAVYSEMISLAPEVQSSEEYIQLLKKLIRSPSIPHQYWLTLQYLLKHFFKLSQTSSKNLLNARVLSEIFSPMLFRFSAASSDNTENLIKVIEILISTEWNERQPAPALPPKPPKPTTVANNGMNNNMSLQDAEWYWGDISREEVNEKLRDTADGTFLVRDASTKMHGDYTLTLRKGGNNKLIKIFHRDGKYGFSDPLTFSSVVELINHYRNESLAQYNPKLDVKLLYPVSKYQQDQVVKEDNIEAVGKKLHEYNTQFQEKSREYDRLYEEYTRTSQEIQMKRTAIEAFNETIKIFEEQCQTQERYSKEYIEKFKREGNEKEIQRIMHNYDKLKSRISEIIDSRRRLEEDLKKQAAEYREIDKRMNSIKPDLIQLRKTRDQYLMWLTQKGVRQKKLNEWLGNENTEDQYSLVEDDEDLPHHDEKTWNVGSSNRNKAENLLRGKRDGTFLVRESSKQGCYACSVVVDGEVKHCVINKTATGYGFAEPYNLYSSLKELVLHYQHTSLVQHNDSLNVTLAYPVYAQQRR
Text: as §1, §2, §3, §4, §5, §6

PI3Kalpha = target: T3, PI3Kalpha (Homo sapiens, UniProt P42336); experiment: Human PI3K alpha enzyme assay (HTRF)
T3 construct: His (N); host or cells: SF9 cells (baculovirus)
T3 sequence (P42336 whole entry): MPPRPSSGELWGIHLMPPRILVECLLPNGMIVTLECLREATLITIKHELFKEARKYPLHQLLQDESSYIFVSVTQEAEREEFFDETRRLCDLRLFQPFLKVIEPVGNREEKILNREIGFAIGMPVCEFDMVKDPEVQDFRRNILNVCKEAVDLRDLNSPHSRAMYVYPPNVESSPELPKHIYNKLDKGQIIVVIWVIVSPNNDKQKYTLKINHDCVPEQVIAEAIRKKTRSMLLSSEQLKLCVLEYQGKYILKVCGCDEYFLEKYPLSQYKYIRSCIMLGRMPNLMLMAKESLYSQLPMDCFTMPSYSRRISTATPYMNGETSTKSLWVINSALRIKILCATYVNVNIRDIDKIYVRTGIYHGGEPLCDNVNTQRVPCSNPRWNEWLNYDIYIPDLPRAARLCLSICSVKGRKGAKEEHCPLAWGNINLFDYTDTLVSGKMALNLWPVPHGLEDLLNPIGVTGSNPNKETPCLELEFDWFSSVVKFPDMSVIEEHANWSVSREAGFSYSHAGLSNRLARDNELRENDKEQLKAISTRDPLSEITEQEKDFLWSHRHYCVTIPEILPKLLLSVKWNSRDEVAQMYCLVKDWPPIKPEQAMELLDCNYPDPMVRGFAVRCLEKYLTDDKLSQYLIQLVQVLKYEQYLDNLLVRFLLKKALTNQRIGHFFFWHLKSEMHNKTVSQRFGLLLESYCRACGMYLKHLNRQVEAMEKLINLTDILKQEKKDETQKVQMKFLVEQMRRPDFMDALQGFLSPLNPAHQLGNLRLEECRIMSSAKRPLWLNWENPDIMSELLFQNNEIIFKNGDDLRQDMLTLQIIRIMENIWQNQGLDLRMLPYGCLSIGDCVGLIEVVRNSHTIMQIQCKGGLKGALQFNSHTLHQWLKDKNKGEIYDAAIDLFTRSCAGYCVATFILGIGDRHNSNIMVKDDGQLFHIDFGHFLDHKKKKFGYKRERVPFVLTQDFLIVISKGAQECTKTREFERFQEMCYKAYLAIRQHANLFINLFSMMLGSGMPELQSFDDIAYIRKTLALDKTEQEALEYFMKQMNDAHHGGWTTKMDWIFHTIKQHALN
T3 sequence (P27986 whole entry partner): as the sequence (P27986 whole entry partner) above
Text: as §1, §2, §3
1) Human PI3K Alpha Enzyme Assay Method
as §4, §6

PI3K beta = target: T4, PI3K beta (Homo sapiens, UniProt P42338); experiment: Human PI3K beta enzyme assay (HTRF)
T4 construct: His (N); host or cells: SF9 cells (baculovirus)
T4 sequence (P42338 whole entry): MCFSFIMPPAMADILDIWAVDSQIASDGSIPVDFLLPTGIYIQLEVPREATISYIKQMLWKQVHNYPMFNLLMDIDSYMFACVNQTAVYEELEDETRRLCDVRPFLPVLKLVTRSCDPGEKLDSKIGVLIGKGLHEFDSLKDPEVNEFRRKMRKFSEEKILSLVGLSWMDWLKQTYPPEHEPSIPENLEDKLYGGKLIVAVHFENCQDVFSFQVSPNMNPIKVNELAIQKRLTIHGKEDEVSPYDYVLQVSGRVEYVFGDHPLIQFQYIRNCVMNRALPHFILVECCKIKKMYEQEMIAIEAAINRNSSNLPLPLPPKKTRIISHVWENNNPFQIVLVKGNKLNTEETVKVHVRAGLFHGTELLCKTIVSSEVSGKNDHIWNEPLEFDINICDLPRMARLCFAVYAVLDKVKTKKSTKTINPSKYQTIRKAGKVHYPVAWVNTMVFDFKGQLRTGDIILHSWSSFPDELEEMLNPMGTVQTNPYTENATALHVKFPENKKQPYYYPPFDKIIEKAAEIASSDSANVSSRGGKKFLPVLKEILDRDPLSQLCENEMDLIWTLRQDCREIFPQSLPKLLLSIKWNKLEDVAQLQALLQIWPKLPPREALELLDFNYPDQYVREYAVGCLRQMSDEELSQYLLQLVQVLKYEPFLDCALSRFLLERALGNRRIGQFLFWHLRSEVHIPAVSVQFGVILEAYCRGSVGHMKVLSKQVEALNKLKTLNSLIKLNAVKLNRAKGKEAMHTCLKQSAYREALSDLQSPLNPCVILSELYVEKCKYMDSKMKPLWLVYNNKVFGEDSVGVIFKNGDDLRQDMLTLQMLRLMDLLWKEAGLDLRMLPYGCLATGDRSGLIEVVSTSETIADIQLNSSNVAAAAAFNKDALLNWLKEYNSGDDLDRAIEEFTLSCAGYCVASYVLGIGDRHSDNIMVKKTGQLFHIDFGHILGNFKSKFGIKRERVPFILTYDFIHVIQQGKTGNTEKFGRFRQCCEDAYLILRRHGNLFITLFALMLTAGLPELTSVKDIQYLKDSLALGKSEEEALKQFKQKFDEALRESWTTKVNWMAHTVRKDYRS
T4 sequence (P27986 whole entry partner): as the sequence (P27986 whole entry partner) above
Text: as §1, §2, §3, §4, §5, §6

VPS34 = target: T5, VPS34 (Homo sapiens, UniProt Q8NEB9); experiment: Human VPS34 enzyme assay (Adapta Universal Kinase Assay); details: 1 h; at a 1.0 μM concentration; read-out: VPS34 Percent Inhibition
T5 construct: GST (N); host or cells: SF9 cells (baculovirus)
Experimental: VPS34 (accession number GB:BC033004) is cloned into pDEST20-Thombin as N-terminal GST tagged fusion proteins using the Gateway system (Invitrogen, catalog #11804-013). The sequences are verified before recombinant protein expression using the Baculovirus Expression System with Gateway® Technology.
For expression VPS34 was infected at 1MOI in SF9 cells and harvested 72 hours post infection.
For purification, VPS34 is purified by Glutathione Sepharose 4 Fast Flow (GE Healthcare #17-5132-03) followed by HiTrap Q (GE Healthcare #17-1153-01).
3) VPS34 is assayed using Adapta™ Universal Kinase Assay Kit (Invitrogen).
4) Human VPS34 enzyme assay method
100 nL compounds in DMSO are added to wells of a 384 well microtitre plate (Greiner 780076). […] The plates are then incubated for 30 minutes at room temperature with shaking and then read on a BMG PheraStar Plus reader.
For the assay methods described above, test compound percent inhibition, at various concentrations, is calculated relative to control (DMSO and EDTA) treated samples. […]

[1] = at a 1.0 μM concentration, read-out: PI3Kγ Percent Inhibition
[2] = at a 1.0 μM concentration, read-out: PI3Kδ Percent Inhibition
[3] = at a 1.1 μM concentration, read-out: PI3Kα Percent Inhibition
[4] = at a 1.1 μM concentration, read-out: PI3Kβ Percent Inhibition
[5] = concentration not given, b1433 gives 1.0 μM for PI3K δ and γ, read-out: p110 gamma Percent Inhibition
[6] = concentration not given, read-out: p110 alpha Percent Inhibition
[7] = concentration not given, read-out: p110 beta Percent Inhibition
[8] = concentration not given, b1433 gives 1.0 μM for PI3K δ and γ, read-out: p110 delta Percent Inhibition

T1 sequence (P48736 whole entry): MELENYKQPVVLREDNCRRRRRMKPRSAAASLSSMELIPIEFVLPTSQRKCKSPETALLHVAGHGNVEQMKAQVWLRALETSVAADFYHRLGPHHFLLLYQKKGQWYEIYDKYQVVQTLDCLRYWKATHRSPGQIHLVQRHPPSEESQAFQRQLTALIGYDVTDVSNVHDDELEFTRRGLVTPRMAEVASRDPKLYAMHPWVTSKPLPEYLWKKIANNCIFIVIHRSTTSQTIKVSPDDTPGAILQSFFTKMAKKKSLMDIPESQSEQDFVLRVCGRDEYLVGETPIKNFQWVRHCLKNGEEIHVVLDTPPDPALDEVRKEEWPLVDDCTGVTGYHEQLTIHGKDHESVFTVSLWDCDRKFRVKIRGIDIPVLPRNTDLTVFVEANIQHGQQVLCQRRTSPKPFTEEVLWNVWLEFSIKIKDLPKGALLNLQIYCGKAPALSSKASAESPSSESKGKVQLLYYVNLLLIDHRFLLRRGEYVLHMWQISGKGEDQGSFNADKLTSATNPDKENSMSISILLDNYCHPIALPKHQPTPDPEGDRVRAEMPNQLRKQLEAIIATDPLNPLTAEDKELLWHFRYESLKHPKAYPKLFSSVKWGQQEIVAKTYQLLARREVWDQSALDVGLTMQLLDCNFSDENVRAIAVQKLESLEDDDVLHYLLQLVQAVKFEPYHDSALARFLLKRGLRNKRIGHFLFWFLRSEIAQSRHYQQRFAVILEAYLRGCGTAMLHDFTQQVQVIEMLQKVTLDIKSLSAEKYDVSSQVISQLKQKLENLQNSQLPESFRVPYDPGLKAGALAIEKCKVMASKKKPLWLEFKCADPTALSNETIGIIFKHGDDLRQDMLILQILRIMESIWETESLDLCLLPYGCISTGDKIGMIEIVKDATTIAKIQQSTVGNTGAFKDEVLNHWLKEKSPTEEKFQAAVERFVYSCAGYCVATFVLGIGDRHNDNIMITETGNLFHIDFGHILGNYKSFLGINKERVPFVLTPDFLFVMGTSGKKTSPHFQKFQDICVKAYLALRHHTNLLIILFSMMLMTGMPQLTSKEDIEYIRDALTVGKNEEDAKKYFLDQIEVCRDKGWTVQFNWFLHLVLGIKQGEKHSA

inhibition at 1 µM (PI3K gamma; [1]) [%] | inhibition at 1 µM (PI3K delta; [2]) [%] | inhibition at 1.1 µM (PI3Kalpha; [3]) [%] | inhibition at 1.1 µM (PI3K beta; [4]) [%] | inhibition at 1 µM (VPS34) [%] | inhibition at 1 µM (PI3K gamma; [5]) [%] | inhibition at 1.1 µM (PI3Kalpha; [6]) [%] | inhibition at 1.1 µM (PI3K beta; [7]) [%] | inhibition at 1 µM (PI3K delta; [8]) [%] | Compound
20.2 | 87.3 | 49 | 103 | 45.8 |  |  |  |  | N#Cc1c(N2CCOCC2)sc(C(=O)O)c1Cc1cc(F)c(F)cc1F [Compound 107]
 |  |  |  |  | 78 | 98 | 108 |  | N#Cc1c(N2CCOCC2)sc(C(=O)O)c1Cc1ccc2ccccc2c1F [Compound 293]
 |  |  |  |  | 76 | 101 | 111 |  | N#Cc1c(N2CCOCC2)sc(C(=O)O)c1Cc1cc2ccccc2cc1F [Compound 295]
 |  |  |  |  | 67 | 84 | 110 |  | N#Cc1c(N2CCOCC2)sc(C(=O)O)c1Cc1ccc2c(F)cccc2c1 [Compound 343]
 |  |  |  |  | 39 | 41 | 106 |  | N#Cc1c(N2CCOCC2)sc(C(=O)O)c1C(F)(F)c1ccc2ccccc2c1 [Compound 308]
 |  |  |  |  | 11 | 14 | 60 |  | COC(c1ccc2ccccc2c1)c1c(C(=O)O)sc(N2CCOCC2)c1C#N (stereo not shown) [Compound 337]
 |  |  |  |  | 67 | 107 | 118 |  | N#Cc1c(N2CCOCC2)sc(C(=O)O)c1Cc1cc(F)c2ccccc2c1 [Compound 324]
 |  |  |  |  | 2 | 20 | 64 | 27 | COc1cccc(C(O)c2cc(-c3ccncc3)sc2-c2nnc[nH]2)c1 (stereo not shown) [Compound 253]
 |  |  |  |  | 28 | 61 | 97 | 74 | OC(c1cc(Br)cs1)c1cc(-c2ccncc2)sc1-c1nnc[nH]1 (stereo not shown) [Compound 233]
 |  |  |  |  | 9 | 15 | 84 |  | N#Cc1c(N2CCOCC2)sc(C(N)=O)c1C(F)(F)c1ccc2ccccc2c1 [Compound 307]
 |  |  |  |  | 42 | 43 | 108 |  | N#Cc1c(N2CCOCC2)sc(-c2nnn[nH]2)c1C(F)(F)c1ccc2ccccc2c1 [Compound 349]
6.8 | 38.1 | 30 | 78 | 28.2 |  |  |  |  | N#Cc1c(N2CCOCC2)sc(C(=O)O)c1Cc1ccc(OC(F)(F)F)cc1 [Compound 102]
 |  |  |  |  | 62 |  | 105 |  | N#Cc1c(N2CCOCC2)sc(C(=O)O)c1C(F)c1ccc2ccccc2c1 (stereo not shown) [Compound 345]
 |  |  |  |  | 5 | 0 | 55 | 39 | NCc1c[nH]c(-c2sc(-c3ccncc3)nc2Cc2ccc(Cl)cc2)n1 [Compound 255, (2-(4-(4-chlorobenzyl)-2-(pyridin-4-yl)thiazol-5-yl)-1H-imidazol-4-yl)methanamine]
 |  |  |  |  | 37 | 37 | 106 |  | N#Cc1c(N2CCOCC2)sc(C(=O)O)c1Cc1ccc2c(c1)CCCC2 [Compound 305]
 |  |  |  |  | 69 | 84 | 109 |  | N#Cc1c(N2CCOCC2)sc(C(=O)O)c1Cc1ccc2ccc(F)cc2c1 [Compound 287]
 |  |  |  |  | 46 | 44 | 105 |  | N#Cc1c(N2CCOCC2)sc(C(=O)O)c1Cc1cc(F)c(Cl)cc1F [Compound 300]
 |  |  |  |  | 49 | 30 | 106 | 110 | c1ccc2cc(Cc3nc(N4CCOCC4)sc3-c3nnn[nH]3)ccc2c1 [Compound 360, 4-[4-(2-naphthylmethyl)-5-(1H-tetrazol-5-yl)-1,3-thiazol-2-yl]morpholine]
